Values joined by “and” are separate entries in the source; they are usually repeats but may differ in a detail not shown here. Identical values can stand only once.

Usually viability, T/C stands for the result in the treated group divided by that in the control group, in per cent. A word on the IC50: it is the concentration that gives 50% inhibition.

The test has as its system 519858-162-T-J1-PDC spheroid growth inhibition. The test is described as follows: Anticancer human tumor 519858-162-T-J1-PDC patient-derived colon adenocarcinoma cell line growth inhibition [TAK]. Conditions: spheroids with HUVEC and MSC; for viability, T/C: stronger effect = lower value. An excerpt: Combinatorial screen of targeted agents with TAK-243 and ipatasertib in multi-cell type tumor spheroids
A high-throughput screen of multi-cell type tumor spheroids was designed to identify active combinations of targeted small molecules and TAK-243 or ipatasertib. Complex spheroids include a stromal component modeled by human endothelial cells (HUVEC) and fibroblasts modeled by human mesenchymal stem cells (MSCs). The concentration ranges selected for each drug and investigational agent were based upon clinically achievable concentrations if the clinical Cmax of the agent was known.
Compounds. The drugs and investigational agents: TAK-243 (785004), ipatasertib (767898), everolimus (733504), selumetinib (741078), bortezomib (756655), trametinib (758246), ixazomib (758254), vemurafenib (761431), dabrafenib (764134), sapanisertib (764658), alpelisib (765974), and copanlisib (816437), were obtained from the National Cancer Institute (NCI) Developmental Therapeutics Program Chemical Repository. The FDA-approved anticancer drug set is available from the NCI Developmental Therapeutics Program. […] The stock solutions were prepared in dimethyl sulfoxide (DMSO, Sigma-Aldrich, St. Louis, MO, cat. D2650) at 800-fold the tested concentration and stored at -70 degrees C prior to their use. All drugs and investigational agents were tested over a range starting from a high concentration at or near the clinical Cmax and decreasing in half-log increments. If the clinical Cmax for an agent had not been determined, the highest concentration tested was 10 microM.
NCI60 Cell Culture. NCI60 cell lines were obtained from the NCI Developmental Therapeutics Program Tumor Repository. For each lot of cells, the Repository performed Applied Biosystems AmpFLSTR Identifiler testing with PCR amplification to confirm consistency with the published Identifier STR profile for each cell line. Cells were kept in continuous culture for no more than 20 passages. The optimal seeding densities for each of the cell lines at each time point assessed were determined prior to performing the concentration response studies. Briefly, the NCI60 human tumor lines were grown as monolayers in RPMI 1640 medium supplemented with 10% FBS and 2 mmol/L L-glutamine.
An additional 2 lines were from the NCI60 cell line panel including melanomas, MALME-3M and SK-MEL-2. Pooled donor human umbilical vein endothelial cells (HUVEC, Lonza, cat. CC-2519) and human mesenchymal stem cells (hMSC, Lonza, cat. PT-2501) were purchased from Lonza (Walkersville, MD).
PDMR cell lines were grown in complete medium (DC medium): Dulbecco's modified Eagle's medium (DMEM)/F12 supplemented with 5% fetal bovine serum (FBS), 2 mM L-glutamine, 100 U/mL penicillin and 100 µg/ml streptomycin, 0.4 µg/ml hydrocortisone, 10 ng/ml epidermal growth factor (EGF) recombinant human protein, 24 µg/mL adenine, and 0.1 mg/mL primocin. During culture from frozen stock vials, PDMR cells were cultured in the same medium containing 10 µM Y-27632 (see Table 3). The PDCs were cultured in complete DMEM/F12 media without 10 microM Y-27632 dihydrochloride for at least two passages prior to the screen. The pooled donor HUVEC and hMSC were cultured in endothelial cell growth medium 2 (PromoCell, Heidelberg, Germany, cat. C-22011) and mesenchymal stem cell growth medium 2 (PromoCell, cat. C-28009), respectively. For all experiments, HUVEC and hMSC were used at passages </=5.
For the pre-screen, cell seeding densities were determined from a titration spanning the range from 5,000 to 313 cells per well. The mct-spheroids including 60% malignant cells, 25% HUVEC and 15% MSC dispensed as a mixture into U-bottom Ultra-Low Attachment 384-well plates (Corning, NY)
High-throughput Drug Combination Screening.
Prior to their inoculation into 384-well plates, malignant cells, HUVEC, and hMSC were removed from T flasks using TrypLE express (Thermo Fisher Scientific, cat. 12605036) and harvested by centrifugation for 5 min at 233 x g. […]
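Note: spheroids exposed to drugs for 7 days.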

In the case of `CC(=O)Nc1cccc(-n2c(=O)n(C3CC3)c(=O)c3c(Nc4ccc(I)cc4F)n(C)c(=O)c(C)c32)c1`, the viability, T/C (compound 94.9 pM) is 89.9% and 91.8%; the viability, T/C (compound 0.0003 µM) is 93.7% and 106%; the viability, T/C (compound 0.000949 µM) is 72.7% and 67.4%; the viability, T/C (compound 0.003 µM) was 71.1% and 79.3%; the viability, T/C (compound 0.00949 µM) is 34.1% and 44.1%; the viability, T/C (compound 0.03 µM) is 21.4% and 26.3%. For the same compound, the IC50 (curve of compound) was 5.61 nM and 8.51 nM.
`CC(C)(C)c1nc(-c2cccc(NS(=O)(=O)c3c(F)cccc3F)c2F)c(-c2ccnc(N)n2)s1`: the viability, T/C by setting is: (compound 0.0316 µM) 116% and 110%; (compound 0.1 µM) 134% and 144%; (compound 0.316 µM) 131% and 137%; (compound 1 µM) 132% and 150%; (compound 3.16 µM) 99% and 94.1%; (compound 10 µM) 53.2% and 71.4%. Besides, for the setting “curve of compound”, the concentration for half-maximal inhibition (IC50) is more than 10000 nM.
As for `CC(C)CC(NC(=O)C(Cc1ccccc1)NC(=O)c1cnccn1)B(O)O` (stereo not given), the viability, T/C was 90.9% and 107% (compound 31.6 pM); 97.5% and 90.8% (compound 0.0001 µM); 91% and 116% (compound 0.000316 µM); 88.1% and 106% (compound 0.001 µM); 89.5% and 109% (compound 0.00316 µM); 73.2% and 71.1% (compound 0.01 µM). In addition, the concentration for half-maximal inhibition (IC50) (curve of compound) was more than 10 nM.
In the case of `CC(C)CC(NC(=O)CNC(=O)c1cc(Cl)ccc1Cl)B1OC(=O)CC(CC(=O)O)(C(=O)O)O1` (stereo not given), the viability, T/C runs as follows: (compound 0.000316 µM) 86.2% and 83.8%; (compound 0.00316 µM) 106% and 95.6%; (compound 0.01 µM) 92.6% and 72.9%; (compound 0.0316 µM) 74.9% and 77%; (compound 0.1 µM) 74.5% and 84.2%. In addition, for the setting “curve of compound”, the concentration for half-maximal inhibition (IC50) is more than 100 nM.
In the case of `CC(C)NCC(C(=O)N1CCN(c2ncnc3c2C(C)CC3O)CC1)c1ccc(Cl)cc1` (stereo not given), the viability, T/C is 87% [middle of 10 runs] (compound 3 µM) and 86.8% [middle of 10 runs] (compound 30 µM). Besides, under “compound alone, run of 02/28/2020”, the half-maximal inhibitory concentration (IC50) was more than 30000 nM.
As for `CC(C)n1nc(-c2ccc3oc(N)nc3c2)c2c(N)ncnc21`, the viability, T/C runs as follows: (compound 0.001 µM) 104% and 100%; (compound 0.00316 µM) 94.8% and 95.9%; (compound 0.01 µM) 112% and 97.5%; (compound 0.0316 µM) 78.9% and 93.1%; (compound 0.1 µM) 74.1% and 61.6%. Moreover, under “curve of compound”, the IC50 is more than 100 nM.
`CCCS(=O)(=O)Nc1ccc(F)c(C(=O)c2c[nH]c3ncc(-c4ccc(Cl)cc4)cc23)c1F`: the viability, T/C is, setting by setting: (compound 0.316 µM) 99.3% and 108%; (compound 1 µM) 91.4% and 91.7%; (compound 3.16 µM) 105% and 126%; (compound 10 µM) 91.9% and 93%; (compound 31.6 µM) 114% and 129%; (compound 100 µM) 132% and 140%. For the same compound, the IC50 (curve of compound) is more than 100000 nM.
For the compound `COC1CC2CCC(C)C(O)(O2)C(=O)C(=O)N2CCCCC2C(=O)OC(C(C)CC2CCC(OCCO)C(OC)C2)CC(=O)C(C)C=C(C)C(O)C(OC)C(=O)C(C)CC(C)C=CC=CC=C1C` (stereo not given), the viability, T/C runs as follows: (compound 0.000316 µM) 98.9% and 86.7%; (compound 0.00316 µM) 88.3% and 111%; (compound 0.01 µM) 76.2% and 91.2%; (compound 0.0316 µM) 89.6% and 75.7%; (compound 0.1 µM) 71.5% and 82.5%. Moreover, for the setting “curve of compound”, the concentration for half-maximal inhibition (IC50) was more than 100 nM.
As for `COc1c(OCCCN2CCOCC2)ccc2c3n(c(=NC(=O)c4cnc(N)nc4)nc12)CCN3`, the viability, T/C reads like this: (compound 0.00316 µM) 95.7% and 91.3%; (compound 0.01 µM) 80.9% and 100%; (compound 0.0316 µM) 81.7% and 72.2%; (compound 0.1 µM) 48.8% and 62.1%; (compound 0.316 µM) 43.9% and 52.3%; (compound 1 µM) 33.8% and 44.4%. For the same compound, the half-maximal inhibitory concentration (IC50) (curve of compound) is 111 nM and 315 nM.
With `Cc1nc(NC(=O)N2CCCC2C(N)=O)sc1-c1ccnc(C(C)(C)C(F)(F)F)c1` (stereo not given), the viability, T/C (compound 0.0316 µM) was 104% and 89.1%; the viability, T/C (compound 0.1 µM) is 79.9% and 74%; the viability, T/C (compound 0.316 µM) is 91% and 80.8%; the viability, T/C (compound 1 µM) is 81.2% and 80.4%; the viability, T/C (compound 3.16 µM) is 79.6% and 74%; the viability, T/C (compound 10 µM) was 61.9% and 50%. Further, for the setting “curve of compound”, the half-inhibitory concentration (IC50) is > 10000 nM and 10000 nM.
With `Cn1cnc2c(F)c(Nc3ccc(Br)cc3Cl)c(C(=O)NOCCO)cc21`, the viability, T/C reads like this: (compound 0.00949 µM) 89.7% and 85.4%; (compound 0.03 µM) 76.2% and 71.8%; (compound 0.0949 µM) 45.6% and 51.8%; (compound 0.3 µM) 32.3% and 33.5%; (compound 0.949 µM) 20.3% and 21.6%; (compound 3 µM) 17.2% and 18.4%. For the same compound, the IC50 (curve of compound) is 89.6 nM and 106 nM.

The values above are taken from PubChem BioAssay AID2060354 (Molecular Pharmacology Branch, DTP, NCI, 2025).
